Experimental data from patent US4336389A, “2-Substituted-4-aryl-5-thiazolecarboxylic acids and their derivatives as safening agents” (Monsanto Company, priority 1978, dated 1982).

Assays:
Type in all cases: in vivo
rice [1] = test: Safening effect against butachlor injury to rice, safening agent and herbicide incorporated in soil (Example 15, Table I); set-up: key: herbicide-alone + safener-alone effect (max 100) minus combined effect; conditions: safening agent 8.96 kg/h; butachlor 6.72 kg/h; ~21 days
Procedure: (§1) A good grade of top soil is placed in a container and compacted to a depth of approximately 1.27 cm. from the top of said container. A predetermined number of rice seeds to be tested are placed on top of the soil. A quantity of soil sufficient to substantially fill the container is measured and placed in a second container. A measured quantity of the safening agent dispersed or dissolved in a suitable carrier is applied to the soil in the second container. A measured quantity of butachlor dispersed or dissolved in a suitable carrier is then sprayed on the soil already treated with the safening agent. The soil containing the safening agent and herbicide is thoroughly mixed. This mixing is sometimes referred to as incorporation of the herbicide and safening agent into the soil. The mixing or incorporation provides a substantially uniform distribution of the safening agent and herbicide throughout the soil. The seeds are covered with the soil containing the safening agent and herbicide and the pans are leveled. The pans are then placed on a sand bench in the greenhouse and watered from below as needed. The plants are observed at the end of approximately 21 days and the results in terms of percent inhibition of each seed lot are recorded. For each test series a pan of plants is also prepared containing no herbicide and no safening agent as a control. Additionally, for each test, a pan of plants is prepared with soil covering the seed containing no herbicide and only the measured amount of safening agent being incorporated into the soil covering the seeds to ascertain any herbicidal effect of the safening agent alone. For each series of tests the herbicidal effect of the herbicide is observed from pans of plants treated with the same quantity of herbicide alone. The "safening effect" is determined by adding the hericidal effect of the herbicide when applied alone to the herbicidal effect of the safening agent when applied alone (in no instance, however, will this sum be greater than 100) and substracting from that the herbicidal effect obtained when the herbicide and safening agent are incorporated into the soil as discussed above.
Table I summarizes the results obtained when the compounds of the invention were tested in accordance with the procedure of Example 15.

rice [2] = test: Safening effect against butachlor injury to pre-soaked rice, soil surface application, flooded pots (Example 16, Table II); set-up: key: herbicide injury alone + safener injury alone (max 100) minus combined injury; conditions: safening agent 0.56 kg/h, ~21 days, mean of two replicates
Procedure: as §1
A good grade of top soil is placed in a plastic pot. A measured quantity of the safening agent dispersed or dissolved in a suitable carrier is sprayed on the soil surface. A measured quantity of butachlor herbicide dissolved in a solvent is sprayed on the soil surface. Presoaked rice is seeded into the pots that were previously flooded with water and the water level lowered below the soil surface for one week. The pots are flooded at least up to the soil surface for the duration of the test. The plants are observed at the end of approximately 21 days and the results in terms of the percent inhibition of rice is recorded. As in Example 15, for each test pots are prepared containing soil treated only with butachlor. For each test, pots are also prepared containing soil treated only with the safening agent. Pots are also prepared in which the soil is not treated with either the herbicide or the safening agent. The safening effect is determined in accordance with Example 15.
Table II summarizes the results obtained when the compounds of the invention were tested in accordance with the procedure of Example 16.

rice [3] = test: Inhibition of rice by butachlor and safening agent sprayed on soil surface, flooded pots (Example 17, Table III); conditions: ~21 days, mean of two replicates
Procedure: (§2) 5.08 cm. of a good grade of top soil is placed in a 7.62 cm. deep plastic pot. A predetermined number of barnyard grass seeds are applied to the soil surface. A measured quantity of the safening agent dispersed or dissolved in a suitable carrier is sprayed on the soil surface. A measured quantity of butachlor herbicide dissolved in a solvent is sprayed on the soil surface. Pre-soaked rice is seeded into the pots that were previously flooded with water. The water level is lowered below the soil surface for one week to allow barnyard grass to emerge. The pots are flooded just above the soil surface for the duration of the test. The plants are observed at the end of approximately 21 days and the results in terms of percent inhibition recorded. For each test, pots are prepared containing soil treated only with butachlor. For each test, pots are prepared containing soil treated only with the safening agent. Pots are also prepared containing untreated soil.

Barnyard Grass [4] = test: Inhibition of barnyard grass by butachlor and safening agent sprayed on soil surface, flooded pots (Example 17, Table III); conditions: ~21 days, mean of two replicates
Procedure: as §2

rice [5] = test: Inhibition of rice, safening agent and butachlor applied to soil surface, flooded pots (Example 18, Table IV); conditions: ~21 days, mean of two replicates
Procedure: as §2, with “safening agent and butachlor dispersed or” for “safening agent dispersed or”, “carrier is applied to the soil” for “carrier is sprayed on the soil surface. A measured quantity of butachlor herbicide dissolved in a solvent is sprayed on the soil”, “for one week. The pots” for “for one week to allow barnyard grass to emerge. The pots”, “also prepared with untreated soil.” for “also prepared containing untreated soil.”

Barnyard Grass [6] = test: Inhibition of barnyard grass, safening agent and butachlor applied to soil surface, flooded pots (Example 18, Table IV); conditions: ~21 days, mean of two replicates
Procedure: as §2, with “safening agent and butachlor dispersed or” for “safening agent dispersed or”, “carrier is applied to the soil” for “carrier is sprayed on the soil surface. A measured quantity of butachlor herbicide dissolved in a solvent is sprayed on the soil”, “for one week. The pots” for “for one week to allow barnyard grass to emerge. The pots”, “also prepared with untreated soil.” for “also prepared containing untreated soil.”

Barnyard Grass [7] = test: Percent inhibition of barnyard grass, mixture incorporated in soil cover layer (Example 19, Table V); conditions: ~21 days
Description: (§3) 5.08 cm. of a good grade of top soil is placed in a 7.62 cm. deep plastic pot. A predetermined number of weed seeds and rice seeds are applied to the soil surface. Butachlor and ethyl 2-chloro-4-phenyl-5-thiazolecarboxylate are applied to a soil cover layer as a mixture and incorporated by shaking the treated soil cover layer in a plastic bag. The cover layers were then placed on the pre-seeded pots. The plants are observed at the end of approximately 21 days and the results in terms of percent inhibition recorded. For each test, pots are prepared containing soil treated only with butachlor. For each test, pots are prepared containing soil treated only with the safening agent. Pots are also prepared with untreated soil.

Crabgrass = test: Percent inhibition of crabgrass, mixture incorporated in soil cover layer (Example 19, Table V); conditions: ~21 days
Description: as §3

Panicum = test: Percent inhibition of panicum, mixture incorporated in soil cover layer (Example 19, Table V); conditions: ~21 days
Description: as §3

Foxtail = test: Percent inhibition of foxtail, mixture incorporated in soil cover layer (Example 19, Table V); conditions: ~21 days
Description: as §3

rice [8] = test: Percent inhibition of rice, mixture incorporated in soil cover layer (Example 19, Table V); conditions: ~21 days
Description: as §3

[9] = safening agent 0.07 kg/h + butachlor 0.07 kg/h
[10] = safening agent 0.07 kg/h + butachlor 0.28 kg/h
[11] = safening agent 0.07 kg/h + butachlor 1.12 kg/h
[12] = safening agent 0.28 kg/h + butachlor 0.07 kg/h
[13] = safening agent 0.28 kg/h + butachlor 0.28 kg/h
[14] = safening agent 0.28 kg/h + butachlor 1.12 kg/h
[15] = safening agent 1.12 kg/h + butachlor 0.07 kg/h
[16] = safening agent 1.12 kg/h + butachlor 0.28 kg/h
[17] = safening agent 1.12 kg/h + butachlor 1.12 kg/h

For `CCOC(=O)c1sc(Cl)nc1-c1ccc(Cl)cc1` [Example 4, Ethyl 2-Chloro-4-p-Chlorophenyl-5-Thiazolecarboxylate], the “Safening Effect” value (rice [1]) was 85, the “Safening Effect” value (rice [2]; butachlor 0.07 kg/h) was 30 and the “Safening Effect” value (rice [2]; butachlor 0.28 kg/h) was 70. For the same compound, the “Safening Effect” value (rice [2]; butachlor 1.12 kg/h) was 32, the “Inhibition, Rice” value (rice [3]; [9]) was 0% and the “Inhibition, Rice” value (rice [3]; [10]) was 0%. For the same compound, the “Inhibition, Rice” value (rice [3]; [11]) was 78%, the “Inhibition, Rice” value (rice [3]; [12]) was 0% and the “Inhibition, Rice” value (rice [3]; [13]) was 0%. The “Inhibition, Rice” value (rice [3]; [14]) was 40%, the “Inhibition, Rice” value (rice [3]; [15]) was 0% and the “Inhibition, Rice” value (rice [3]; [16]) was 0%. For the same compound, the “Inhibition, Rice” value (rice [3]; [17]) was 28%, the “Inhibition, Rice” value (rice [3]; safening agent alone 0.07 kg/h) was 0% and the “Inhibition, Rice” value (rice [3]; safening agent alone 0.28 kg/h) was 0%. The “Inhibition, Rice” value (rice [3]; safening agent alone 1.12 kg/h) was 0%, the “Inhibition, Barnyard Grass” value (Barnyard Grass [4]; [9]) was 99% and the “Inhibition, Barnyard Grass” value (Barnyard Grass [4]; [10]) was 100%. For the same compound, the “Inhibition, Barnyard Grass” value (Barnyard Grass [4]; [11]) was 100%, the “Inhibition, Barnyard Grass” value (Barnyard Grass [4]; [12]) was 99% and the “Inhibition, Barnyard Grass” value (Barnyard Grass [4]; [13]) was 99%. The “Inhibition, Barnyard Grass” value (Barnyard Grass [4]; [14]) was 100%, the “Inhibition, Barnyard Grass” value (Barnyard Grass [4]; [15]) was 99% and the “Inhibition, Barnyard Grass” value (Barnyard Grass [4]; [16]) was 99%. For the same compound, the “Inhibition, Barnyard Grass” value (Barnyard Grass [4]; [17]) was 100%, the “Inhibition, Barnyard Grass” value (Barnyard Grass [4]; safening agent alone 0.07 kg/h) was 0% and the “Inhibition, Barnyard Grass” value (Barnyard Grass [4]; safening agent alone 0.28 kg/h) was 0%. For the same compound, the “Inhibition, Barnyard Grass” value (Barnyard Grass [4]; safening agent alone 1.12 kg/h) was 0%, the “% Inhibition, Rice” value (rice [5]; [9]) was 5% and the “% Inhibition, Rice” value (rice [5]; [10]) was 63%. For the same compound, the “% Inhibition, Rice” value (rice [5]; [11]) was 88%, the “% Inhibition, Rice” value (rice [5]; [12]) was 0% and the “% Inhibition, Rice” value (rice [5]; [13]) was 30%. For the same compound, the “% Inhibition, Rice” value (rice [5]; [14]) was 40%, the “% Inhibition, Rice” value (rice [5]; [15]) was 0% and the “% Inhibition, Rice” value (rice [5]; [16]) was 30%. For the same compound, the “% Inhibition, Rice” value (rice [5]; [17]) was 88%, the “% Inhibition, Rice” value (rice [5]; safening agent alone 0.07 kg/h) was 0% and the “% Inhibition, Rice” value (rice [5]; safening agent alone 0.28 kg/h) was 0%. The “% Inhibition, Rice” value (rice [5]; safening agent alone 1.12 kg/h) was 0%, the “% Inhibition, Barnyard Grass” value (Barnyard Grass [6]; [9]) was 90% and the “% Inhibition, Barnyard Grass” value (Barnyard Grass [6]; [10]) was 100%. For the same compound, the “% Inhibition, Barnyard Grass” value (Barnyard Grass [6]; [11]) was 100%, the “% Inhibition, Barnyard Grass” value (Barnyard Grass [6]; [12]) was 85% and the “% Inhibition, Barnyard Grass” value (Barnyard Grass [6]; [13]) was 100%. For the same compound, the “% Inhibition, Barnyard Grass” value (Barnyard Grass [6]; [14]) was 100%, the “% Inhibition, Barnyard Grass” value (Barnyard Grass [6]; [15]) was 85% and the “% Inhibition, Barnyard Grass” value (Barnyard Grass [6]; [16]) was 100%. For the same compound, the “% Inhibition, Barnyard Grass” value (Barnyard Grass [6]; [17]) was 100%, the “% Inhibition, Barnyard Grass” value (Barnyard Grass [6]; safening agent alone 0.07 kg/h) was 0% and the “% Inhibition, Barnyard Grass” value (Barnyard Grass [6]; safening agent alone 0.28 kg/h) was 0%. The “% Inhibition, Barnyard Grass” value (Barnyard Grass [6]; safening agent alone 1.12 kg/h) was 0%.

In the case of `CCCCOCN(C(=O)CCl)c1c(CC)cccc1CC` [butachlor, 2-chloro-2',6'-diethyl-N-(butoxymethyl)acetanilide, reference compound], the “Inhibition, Rice” value (rice [3]; butachlor alone 0.07 kg/h) is reported as 31%, the “Inhibition, Rice” value (rice [3]; butachlor alone 0.28 kg/h) is reported as 74% and the “Inhibition, Rice” value (rice [3]; butachlor alone 1.12 kg/h) is reported as 98%. The “Inhibition, Barnyard Grass” value (Barnyard Grass [4]; butachlor alone 0.07 kg/h) was 99%, the “Inhibition, Barnyard Grass” value (Barnyard Grass [4]; butachlor alone 0.28 kg/h) was 100% and the “Inhibition, Barnyard Grass” value (Barnyard Grass [4]; butachlor alone 1.12 kg/h) was 100%. The “% Inhibition, Rice” value (rice [5]; butachlor alone 0.07 kg/h) was 64%, the “% Inhibition, Rice” value (rice [5]; butachlor alone 0.28 kg/h) was 78% and the “% Inhibition, Rice” value (rice [5]; butachlor alone 1.12 kg/h) was 100%. The “% Inhibition, Barnyard Grass” value (Barnyard Grass [6]; butachlor alone 0.07 kg/h) was 100%, the “% Inhibition, Barnyard Grass” value (Barnyard Grass [6]; butachlor alone 0.28 kg/h) was 100% and the “% Inhibition, Barnyard Grass” value (Barnyard Grass [6]; butachlor alone 1.12 kg/h) was 100%. The “Percent Inhibition, Barnyard Grass” value (Barnyard Grass [7]; butachlor alone 2.24 kg/h) was 100%, the “Percent Inhibition, Barnyard Grass” value (Barnyard Grass [7]; butachlor alone 4.48 kg/h) was 100% and the “Percent Inhibition, Barnyard Grass” value (Barnyard Grass [7]; butachlor alone 8.96 kg/h) was 100%. For the same compound, the “Percent Inhibition, Crabgrass” value (Crabgrass; butachlor alone 2.24 kg/h) was 100%, the “Percent Inhibition, Crabgrass” value (Crabgrass; butachlor alone 4.48 kg/h) was 100% and the “Percent Inhibition, Crabgrass” value (Crabgrass; butachlor alone 8.96 kg/h) was 100%. The “Percent Inhibition, Panicum” value (Panicum; butachlor alone 2.24 kg/h) was 99%, the “Percent Inhibition, Panicum” value (Panicum; butachlor alone 4.48 kg/h) was 100% and the “Percent Inhibition, Panicum” value (Panicum; butachlor alone 8.96 kg/h) was 100%. For the same compound, the “Percent Inhibition, Foxtail” value (Foxtail; butachlor alone 2.24 kg/h) was 100%, the “Percent Inhibition, Foxtail” value (Foxtail; butachlor alone 4.48 kg/h) was 100% and the “Percent Inhibition, Foxtail” value (Foxtail; butachlor alone 8.96 kg/h) was 100%. The “Percent Inhibition, Rice” value (rice [8]; butachlor alone 2.24 kg/h) was 50%, the “Percent Inhibition, Rice” value (rice [8]; butachlor alone 4.48 kg/h) was 78% and the “Percent Inhibition, Rice” value (rice [8]; butachlor alone 8.96 kg/h) was 93%.
